The experiment is described as follows: Dose–response curve of purified […]s with isoleucine. As to conditions: for fluorescence response of GECFINDER, AVE of 3 repeats: Supplementary Fig. 3 g. It is filed as biochemical. Further details: key to Dose-response, AVE of Repeat 1-3 (Fig. 3 i): normalized ΔF/F0 (fluorescence change over baseline). On the procedure: Fig. 3 Dose–response curves and fluorescence spectrums of […]s. a, c, e, g, i, k Dose–response curve of purified […]s with increasing concentrations of ligand in 100 mM Tris-HCl buffer (pH=7.5). The normalized ΔF/F0 value increased after ligand binding. All data shown are mean ± S.D. (n = 3 biologically independent samples). b, d, f, h, j, l The fluorescence spectra of […]s changed as the ligand concentration increased. All data shown are mean ± S.D. (n = 3 biologically independent samples). Source data are provided as a Source data file.
The study conducted dose–response curve, substrate specificity, and fluorescent spectrum analyses in 100-mM Tris buffer (pH = 7.5), while pH stability experiments were performed in 100-mM Tris buffer at three different pH values (6.5, 7.5, and 8.5) at room temperature. […] protein at a concentration of 0.75 μM, various small molecule concentrations, 1 mM ATP, and 2.5 mM MgCl2 were used in the experiments. Fluorescent signals were detected using a Microplate Reader (Synergy H4, Bio Tek) at an excitation/emission wavelength of 460 nm/510 nm or 480 nm/510 nm. The dose-response curve was determined immediately after the addition of the analyte. The total duration of the measurement was 15 min, with readings taken at one-minute intervals. The dose-response curve was plotted using the fluorescence values obtained after achieving stability in the fluorescence signal. The dose-response curves were fitted using the logistic model LOGISTIC5 available in Origin 2021, which could provide a more adequate fit to asymmetric dose-response data[62],[63]. Excitation spectra were scanned from 300 to 540 nm with a step size of 5 nm, and the emission wavelength was set to 560 nm. Emission spectra were scanned from 470 to 700 nm with a step size of 5 nm, and the excitation wavelength was set to 450 nm. The thermal stability of […] was analyzed using the UNcle multifunctional protein stability analysis system. Measurements were performed in 20 mM MOPS buffer with 2 mM DTT at a sample concentration of 1 mg/mL. Absolute fluorescence quantum yields were measured using an absolute photoluminescence quantum yield spectrometer (FS5, Edinburgh). […]
Ile (μM) Wave le ngth( nm ) Ile (μM) Wave le ngth( nm )
Supplementary Fig. 2 Dose–response curves and fl uorescen ce spectr ums of GEC FINDERs. a and c, Dose– re spons e curves of puri fi ed GECF INDE R-P he1 and 2 with increas ing concen tra tions of phenylalanine (1 nM to 100 μM). The norm alized ΔF/F 0 value increas ed aft er phenylalanine binding (4 60 nm excita tion) . b and d, The fl uore scen ce spect ra of GECF IN DER-P he1 and 2 changed as the phe nylalanine concen tra tion incre ased fro m 1 nM to 100 μM. e and g, Dose–re spon se curv es of puri fied GECF IN DER-Il e1 and 2 with increas ing concen tra tio ns of isoleucine (50 nM to 10 mM). The norm alized ΔF/F 0 value increas ed aft er isoleucine binding (4 80 nm excita tion) . f and h, The fl uore scen ce spect ra of GECF INDE R-Il e1 and 2 change d as the isoleucine concen tration increas ed fro m 0.5 μM to 10 mM. i, Dose–re spon se curv e of puri fi ed GECF INDE R-H is1 with increas ing concen tra tio ns of histid ine (5 nM to 1 mM). The Norm alized ΔF/F 0 increas ed aft er histidine binding (480 nm excita tion). j, The fl uore scen ce spect ra of GECFIN DER-H is1 changed as the histid ine concen tra tion increas ed fro m 5 nM to 1 mM. k, Diffe re nce in fl uore scen ce intensity of GECF INDE R-b enzoic aci d in the pre sence of 10 µM benzoic aci d compare d to the cont ro l (0 µM benzoic aci d). […] (n=3 biological ly independent samples). *p ≤ 0.05, ***p ≤ 0.001, ****p ≤ 0.0001, and n.s. indicat ed no signifi can t diffe re nce (S tude nt’s two-t aile d t-t est). Source data are provi ded as a Source Data file . […]

As for `CC[C@H](C)[C@H](N)C(=O)O` [Ile], the “Dose-response, AVE of Repeat 1-3 (Fig. 3 i)” value turned out to be 0 (Ile 0.05 μM); 0.02113 (Ile 0.1 μM); 0.03402 (Ile 0.5 μM); 0.05594 (Ile 5 μM); 0.1628 (Ile 50 μM); 0.2049 (Ile 100 μM). Besides, the “Dose-response, AVE of Repeat 1-3 (Fig. 3 i)” value reads like this: (Ile 250 μM) 0.2905; (Ile 500 μM) 0.3097; (Ile 1000 μM) 0.3698; (Ile 5000 μM) 0.4681; (Ile 7500 μM) 0.4489; (Ile 10000 μM) 0.4411. For the same molecule, the “fluorescence response of GECFINDER, AVE of 3 repeats” value is given as -6.245e-17 (Ile 0.05 μM); 0.01149 (Ile 0.1 μM); 0.02425 (Ile 0.5 μM); 0.01608 (Ile 5 μM); 0.05759 (Ile 50 μM); 0.08825 (Ile 100 μM). Also, the “fluorescence response of GECFINDER, AVE of 3 repeats” value runs as follows: (Ile 250 μM) 0.1283; (Ile 500 μM) 0.1586; (Ile 1000 μM) 0.1861; (Ile 5000 μM) 0.2413; (Ile 7500 μM) 0.2222; (Ile 10000 μM) 0.2208.

Source of the values: publication PMC10590383, “Repurposing conformational changes in ANL superfamily enzymes to rapidly generate biosensors for organic and amino acids” (Nature Communications, 2023).
